Results from the supplement of paper PMC10307832.

Tests used:
Experiment in all cases: relative viability (nuclei count vs DMSO), 5 days (fraction); higher = more cells survive
[1] = compound: CS(=O)(=O)N1CCN(Cc2cc3nc(-c4cccc5[nH]ncc45)nc(N4CCOCC4)c3s2)CC1 [Pictilisib] + Nc1ncn([C@H]2C[C@H](O)[C@@H](CO)O2)c(=O)n1 [Decitabine] (partner 2 µM)
Procedure, shortened: (§1)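 Dosing by pin tool came one day after lung cancer cell lines were seeded in 1536-well plates, using either one drug or a fixed anchor-drug dose plus five library-drug doses (not always all listed) in √10 steps. After 5 days, nuclei were counted on 4× images. Relative viability is treated-well nuclei count divided by vehicle-well nuclei count, and values are medians of duplicate plates.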

[2] = compound: NC1(c2ccc(-c3nc4ccn5c(=O)[nH]nc5c4cc3-c3ccccc3)cc2)CCC1 [MK-2206] + COc1cccc2cc(-c3nc([C@H]4CC[C@H](C(=O)O)CC4)n4ncnc(N)c34)[nH]c12 [OSI-027] (partner 0.5 µM)
Procedure, shortened: as §1

[3] = compound: CS(=O)(=O)N1CCN(Cc2cc3nc(-c4cccc5[nH]ncc45)nc(N4CCOCC4)c3s2)CC1 [Pictilisib] + CCNC(=O)c1noc(-c2cc(C(C)C)c(O)cc2O)c1-c1ccc(CN2CCOCC2)cc1 [Luminespib] (partner 0.01 µM)
Procedure, shortened: as §1

[4] = compound: CS(=O)(=O)N1CCN(Cc2cc3nc(-c4cccc5[nH]ncc45)nc(N4CCOCC4)c3s2)CC1 [Pictilisib] + CC(=O)Nc1cccc(-n2c(=O)n(C3CC3)c(=O)c3c(Nc4ccc(I)cc4F)n(C)c(=O)c(C)c32)c1 [Trametinib] (partner 0.02 µM)
Procedure, shortened: as §1

[5] = compound: CS(=O)(=O)N1CCN(Cc2cc3nc(-c4cccc5[nH]ncc45)nc(N4CCOCC4)c3s2)CC1 [Pictilisib] + C[C@@H](Oc1cc(-c2cnn(C3CCNCC3)c2)cnc1N)c1c(Cl)ccc(F)c1Cl [Crizotinib] (partner 1 µM)
Procedure, shortened: as §1

| Cell Line | relative viability ([1]; first compound 0.02 µM) | relative viability ([1]; first compound 0.06325 µM) | relative viability ([1]; first compound 0.6325 µM) | relative viability ([1]; first compound 2 µM) | relative viability ([2]; first compound 0.01 µM) | relative viability ([2]; first compound 0.03162 µM) | relative viability ([2]; first compound 0.3162 µM) | relative viability ([2]; first compound 1 µM) | relative viability ([3]; first compound 0.02 µM) | relative viability ([3]; first compound 0.06325 µM) | relative viability ([3]; first compound 0.6325 µM) | relative viability ([3]; first compound 2 µM) | relative viability ([4]; first compound 0.02 µM) | relative viability ([4]; first compound 0.06325 µM) | relative viability ([4]; first compound 0.6325 µM) | relative viability ([4]; first compound 2 µM) | relative viability ([5]; first compound 0.02 µM) | relative viability ([5]; first compound 0.06325 µM) | relative viability ([5]; first compound 0.6325 µM) | relative viability ([5]; first compound 2 µM) |
| --- | --- | --- | --- | --- | --- | --- | --- | --- | --- | --- | --- | --- | --- | --- | --- | --- | --- | --- | --- | --- |
| NCI-H1666 | 0.659 | 0.719 | 0.702 | 0.574 | 0.845 | 0.806 | 0.729 | 0.767 | 1.02 | 1.07 | 0.937 | 0.651 | 0.802 | 0.892 | 0.622 | 0.575 | 1.07 | 1.05 | 0.815 | 0.491 |
| COR-L 105 | 0.681 | 0.656 | 0.62 | 0.541 | 0.497 | 0.713 | 0.531 | 0.556 | 0.987 | 0.803 | 0.715 | 0.466 | 0.382 | 0.4 | 0.432 | 0.38 | 0.814 | 0.913 | 0.988 | 0.418 |
| LU99A | 0.969 | 0.919 | 0.901 | 0.441 | 0.318 | 0.335 | 0.219 | 0.283 | 0.254 | 0.228 | 0.251 | 0.204 | 0.579 | 0.478 | 0.407 | 0.239 | 0.56 | 0.545 | 0.44 | 0.346 |
| NCI-H596 | 0.963 | 1.02 | 0.756 | 0.403 | 0.706 | 0.887 | 0.591 | 0.41 | 0.942 | 0.92 | 0.442 | 0.153 | 0.795 | 0.764 | 0.515 | 0.327 | 0.91 | 1.05 | 0.631 | 0.354 |
| 201T | 0.869 | 0.83 | 0.675 | 0.843 | 0.772 | 0.766 | – | 0.494 | 1.04 | 1 | 0.869 | 0.576 | 0.737 | 0.686 | 0.659 | 0.585 | 1.04 | 1.04 | 1.03 | 0.788 |
| HCC-15 | 0.668 | 0.609 | 0.406 | 0.369 | 0.663 | 0.675 | 0.436 | 0.404 | 0.493 | 0.346 | 0.38 | 0.291 | 0.359 | 0.334 | 0.237 | 0.178 | 0.791 | 0.926 | 0.761 | 0.583 |
